According to patent publication US12018023B2 (NERVIANO MEDICAL SCIENCES S.R.L., priority 2018, dated 2024):
pIC50: −log10 of the molar value. Structures can show the parent of a compound that is named as a salt.

Experiments:
IDH1^R132C = target: T1, IDH1^R132C (Homo sapiens, UniProt O75874, R132C); experiment: NADPH depletion assay, IDH1 R132C; assay type: biochemical
T1 construct: purchased not specified
Method: (§1) IDH mutated enzyme activity converting alpha-ketoglutarate to 2-hydroxyglutaric acid is measured using a NADPH depletion assay. In the assay the remaining cofactor is measured at the end of the reaction with the addition of a catalytic excess of diaphorase and resazurin, to generate a fluorescent signal in proportion to the amount of NADPH remaining. IDH1 WT enzyme as well as mutated isoforms IDH1^R132H, IDH1^R132C, and IDH^2R172K enzymes are commercially available proteins (see e.g. Sino Biological, Abcam, Active Motif or Creative BioMart).
(§2) IDH1^R132H homodimer enzyme are diluted to 8 nM, in 10 μL of Assay Buffer (150 mM NaCl, 50 mM Tris-HCl pH 7.6, 10 mM MgCl2, 0.001% Triton X-100, 4 mM β-mercaptoethanol); 0.2 uL of test compound, previously serially diluted 1 to 3, >10 experimental points from 1 mM in DMSO, is added and the mixture is incubated for 15 minutes at room temperature. The reaction is started with the addition of 10 μL of Substrate Mix (12 uM NADPH, 3.4 mM alpha-ketoglutarate in Assay Buffer) and the mixture is incubated for 60 minutes at room temperature. The reaction is terminated with the addition of 5 μl of Detection Buffer (100 μg/mL diaphorase, 30 μM resazurin, in IX Assay Buffer), and is incubated for 15 minute before reading on a ViewLux as platereader at Ex544/Em590.
Compounds are assayed for their activity against IDH1^R132C following the same assay as above with the following modifications: IDH1^R132C and alpha-ketoglutarate final concentrations in the Assay Buffer is 2 nM and 0.14 mM, respectively.

[1] = target: T2, IDH1^R132H homodimer enzyme (Homo sapiens, UniProt O75874, R132H); experiment: NADPH depletion assay, IDH1 R132H; assay type: biochemical
T2 construct: purchased not specified
T2 sequence (O75874 whole entry R132H): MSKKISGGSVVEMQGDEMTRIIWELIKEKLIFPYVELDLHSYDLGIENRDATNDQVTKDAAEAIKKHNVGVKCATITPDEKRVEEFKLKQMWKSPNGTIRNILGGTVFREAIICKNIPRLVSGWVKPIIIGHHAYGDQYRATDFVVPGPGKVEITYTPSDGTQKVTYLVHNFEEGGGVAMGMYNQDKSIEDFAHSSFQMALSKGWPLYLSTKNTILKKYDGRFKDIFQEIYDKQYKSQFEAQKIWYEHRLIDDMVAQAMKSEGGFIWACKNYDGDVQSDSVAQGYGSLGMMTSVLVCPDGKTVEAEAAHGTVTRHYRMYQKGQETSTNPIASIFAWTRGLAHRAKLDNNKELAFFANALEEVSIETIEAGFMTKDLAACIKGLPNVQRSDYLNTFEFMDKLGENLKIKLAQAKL
Method: as §1, §2

T1 sequence (O75874 whole entry R132C): as the sequence (O75874 whole entry R132H) above, with H132C counted along it

SMILES | pIC50 (IDH1^R132C) | pIC50 [1]
C[C@H](Nc1ncc2ccc(=O)n(CC(C)(C)C(=O)O)c2n1)c1ccc2ccccc2c1 [cpd 121, 2,2-dimethyl-3-[2-{[(1S)-1-(naphthalen-2-yl)ethyl]amino}-7-oxopyrido[2,3-d]pyrimidin-8(7H)-yl]propanoic acid] | 5.79 | 5.41
C[C@H](Nc1ncc2ccc(=O)n(CC(C)(C)C(N)=O)c2n1)c1ccc2ccccc2c1 [cpd 122, 2,2-dimethyl-3-[2-{[(1S)-1-(naphthalen-2-yl)ethyl]amino}-7-oxopyrido[2,3-d]pyrimidin-8(7H)-yl]propanamide] | 6.41 | 6.14
C[C@H](Nc1ncc2ccc(=O)n(CC(C)(C)C)c2n1)c1ccc(-c2ccncc2)cc1 [cpd 131, 8-(2,2-dimethylpropyl)-2-({(1S)-1-[4-(pyridin-4-yl)phenyl]ethyl}amino)pyrido[2,3-d]pyrimidin-7(8H)-one] | 6.77 | 6.55
C[C@H](Nc1ncc2ccc(=O)n(CC(C)(C)C)c2n1)c1ccc(S(C)(=O)=O)cc1 [cpd 137, 8-(2,2-dimethylpropyl)-2-({(1S)-1-[4-(methylsulfonyl)phenyl]ethyl}amino)pyrido[2,3-d]pyrimidin-7(8H)-one] | 5.89 | 5.46
C[C@H](Nc1ncc2ccc(=O)n(CC(C)(C)C)c2n1)c1ccc(CN2CCNCC2)cc1 [cpd 138, 8-(2,2-Dimethyl-propyl)-2-[(S)-1-(4-piperazin-1-ylmethyl-phenyl)-ethylamino]-8H-pyrido[2,3-d]pyrimidin-7-one hydrochloride] | 6.11 | 5.65
C[C@H](Nc1ncc2ccc(=O)n(CC(C)(C)C)c2n1)c1ccc(O)cc1 [cpd 145, 8-(2,2-Dimethyl-propyl)-2-[(S)-1-(4-hydroxy-phenyl)-ethylamino]-8H-pyrido[2,3-d]pyrimidin-7-one] | 5.88 | 5.45
C[C@H](Nc1ncc2ccc(=O)n(CC(C)(C)C)c2n1)c1ccc(CN2CC(F)(F)C2)cc1 [cpd 147, 2-{[(1S)-1-{4-[(3,3-difluoroazetidin-1-yl)methyl]phenyl}ethyl]amino}-8-(2,2-dimethylpropyl)pyrido[2,3-d]pyrimidin-7(8H)-one] | 6.76 | 6.33
CC(C)[C@H](C)n1c(=O)ccc2cnc(N[C@@H](C)c3ccc(OC4CCNCC4)cc3)nc21 [cpd 155, 8-((S)-1,2-Dimethyl-propyl)-2-{(S)-1-[4-(piperidin-4-yloxy)-phenyl]-ethylamino}-8H-pyrido[2,3-d]pyrimidin-7-one] | 6.83 | 6.34
C[C@@H]1CN(Cc2ccc([C@H](C)Nc3ncc4ccc(=O)n([C@@H](C)C(F)(F)F)c4n3)cc2)C[C@H](C)O1 [cpd 164, 2-{[(1S)-1-(4-{[(2R,6S)-2,6-dimethylmorpholin-4-yl]methyl}phenyl)ethyl]amino}-8-[(2S)-1,1,1-trifluoropropan-2-yl]pyrido[2,3-d]pyrimidin-7(8H)-one] | 6.39 | 6.12
CC(C)[C@H](C)n1c(=O)ccc2cnc(N[C@@H](C)c3ccc(N4CCNCC4)cc3)nc21 [cpd 176, 8-[(2S)-3-methylbutan-2-yl]-2-({(1S)-1-[4-(piperazin-1-yl)phenyl]ethyl}amino)pyrido[2,3-d]pyrimidin-7(8H)-one] | 5.72 | 5.45
CCN1CCN(c2ccc([C@H](C)Nc3ncc4ccc(=O)n([C@@H](C)C(C)C)c4n3)cc2)CC1 [cpd 177, 2-({(1S)-1-[4-(4-ethylpiperazin-1-yl)phenyl]ethyl}amino)-8-[(2S)-3-methylbutan-2-yl]pyrido[2,3-d]pyrimidin-7(8H)-one] | 6.40 | 6.01
CCn1c(=O)ccc2cnc(N[C@@H](C)c3ccc(CN4CCN(C(=O)OC(C)(C)C)CC4)cc3)nc21 [cpd 185, tert-butyl 4-(4-{(1S)-1-[(8-ethyl-7-oxo-7,8-dihydropyrido[2,3-d]pyrimidin-2-yl)amino]ethyl}benzyl)piperazine-1-carboxylate] | 5.90 | 5.62
CCn1c(=O)ccc2cnc(N[C@@H](C)c3ccc(C(=O)N4CCN(C(=O)OC(C)(C)C)CC4)cc3)nc21 [cpd 189, tert-butyl 4-(4-{(1S)-1-[(8-ethyl-7-oxo-7,8-dihydropyrido[2,3-d]pyrimidin-2-yl)amino]ethyl}benzoyl)piperazine-1-carboxylate] | 6.09 | 5.42
CC(C)[C@H](C)n1c(=O)ccc2cnc(N[C@@H](C)c3ccc(C4=CCN(C(=O)C5CC5)CC4)cn3)nc21 [cpd 195, 2-({(1S)-1-[1′-(cyclopropylcarbonyl)-1′,2′,3′,6′-tetrahydro-3,4′-bipyridin-6-yl]ethyl}amino)-8-[(2S)-3-methylbutan-2-yl]pyrido[2,3-d]pyrimidin-7(8H)-one] | 6.74 | 6.23

The remaining lines, values ahead:

pIC50 (IDH1^R132C) | pIC50 [1] | SMILES
6.97 | 6.66 | CCCC(C)(CO)Cn1c(=O)ccc2cnc(N[C@@H](C)c3ccc(CN4CCC(F)(F)CC4)cc3)nc21 (stereo partly drawn) [cpd 120, 2-{[(1S)-1-{4-[(4,4-difluoropiperidin-1-yl)methyl]phenyl}ethyl]amino}-8-[2-(hydroxymethyl)-2-methylpentyl]pyrido[2,3-d]pyrimidin-7(8H)-one]
7.39 | 6.65 | C[C@H](Nc1ncc2ccc(=O)n(CC(C)(C)C)c2n1)c1ccc(CN2CCOCC2)cc1F [cpd 153, 8-(2,2-dimethylpropyl)-2-({(1S)-1-[2-fluoro-4-(morpholin-4-ylmethyl)phenyl]ethyl}amino)pyrido[2,3-d]-pyrimidin-7(8H)-one]
7.29 | 6.79 | CC(C)C(=O)N1CCN(Cc2ccc([C@H](C)Nc3ncc4ccc(=O)n(CC(C)(C)C)c4n3)cc2)CC1 [cpd 157, 8-(2,2-dimethylpropyl)-2-{[(1S)-1-(4-{[4-(2-methylpropanoyl)piperazin-1-yl]methyl}phenyl)ethyl]amino}-pyrido [2,3-d]pyrimidin-7(8H)-one]
7.40 | 6.90 | C[C@H](Nc1ncc2ccc(=O)n(CC(C)(C)C)c2n1)c1ccc(CN2CCN(C(=O)C3CC3)CC2)cc1 [cpd 158, 2-{[(1S)-1-(4-{[4-(cyclopropylcarbonyl)piperazin-1-yl]methyl}phenyl)ethyl]amino}-8-(2,2-dimethylpropyl) pyrido[2,3-d]pyrimidin-7(8H)-one]
7.51 | 7.17 | CC(C)C(=O)N1CCC(Oc2ccc([C@H](C)Nc3ncc4ccc(=O)n([C@@H](C)C(C)C)c4n3)cc2)CC1 [cpd 160, 8-((S)-1,2-Dimethyl-propyl)-2-{(S)-1-[4-(1-isobutyryl-piperidin-4-yloxy)-phenyl]-ethylamino}-8H-pyrido[2,3-d]pyrimidin-7-one]
7.26 | 6.77 | C[C@@H]1CN(Cc2ccc([C@H](C)Nc3ncc4ccc(=O)n([C@@H](C)C5CC5)c4n3)cc2F)C[C@H](C)O1 [cpd 171, 8-[(1S)-1-cyclopropylethyl]-2-{[(1S)-1-(4-{[(2R,6S)-2,6-dimethylmorpholin-4-yl]methyl}-3-fluorophenyl)ethyl]amino}pyrido[2,3-d]pyrimidin-7(8H)-one]
6.84 | 6.24 | CC(C)[C@H](C)n1c(=O)ccc2cnc(N[C@@H](C)c3ccc(N4CCOCC4)cc3)nc21 [cpd 173, 8-[(2S)-3-methylbutan-2-yl]-2-({(1S)-1-[4-(morpholin-4-yl)phenyl]ethyl}amino)pyrido[2,3-d]pyrimidin-7(8H)-one]
7.49 | 7.38 | CC(C)[C@H](C)n1c(=O)ccc2cnc(N[C@@H](C)c3ccc(N4CCN(C(=O)OCc5ccccc5)CC4)cc3)nc21 [cpd 174, Benzyl-4-{4-[(1S)-1-({8-[(2S)-3-methylbutan-2-yl]-7-oxo-7,8-dihydropyrido[2,3-d]pyrimidin-2-yl}amino)ethyl]phenyl}piperazine-1-carboxylate]
7.21 | 6.99 | C=CC(=O)N1CCN(Cc2ccc([C@H](C)Nc3ncc4ccc(=O)n(CCN=[N+]=[N-])c4n3)cc2)CC1 [cpd 182, 2-{[(1S)-1-{4-[(4-acryloylpiperazin-1-yl)methyl]phenyl}ethyl]amino}-8-(2-azidoethyl)pyrido[2,3-d]pyrimidin-7(8H)-one]
6.92 | 6.48 | CC(C)[C@H](C)n1c(=O)ccc2cnc(N[C@@H](C)c3ccc(CN4CCN(C)C(=O)C4)cc3)nc21 [cpd 188, 8-[(2S)-3-methylbutan-2-yl]-2-{[(1S)-1-{4-[(4-methyl-3-oxopiperazin-1-yl)methyl]phenyl}ethyl]amino}-pyrido [2,3-d]pyrimidin-7(8H)-one]
7.05 | 6.90 | CC(C)[C@H](C)n1c(=O)ccc2cnc(N[C@@H](C)c3ccc(C4=CCN(C(=O)OC(C)(C)C)CC4)cn3)nc21 [cpd 193, tert-butyl 6-[(1S)-1-({8-[(2S)-3-methylbutan-2-yl]-7-oxo-7,8-dihydropyrido[2,3-d]pyrimidin-2-yl}amino)ethyl]-3′,6′-dihydro-3,4′-bipyridine-1′(2′H)-carboxylate]
